This passage reports inhibition and Ki results from US20250042905A1, “DIHYDROPYRROLO[3,4-C]PYRAZOLE DERIVATIVES AND THEIR USE IN DIAGNOSIS” (AC IMMUNE SA, priority 2021, published 2025).

Like-named read-outs stand apart in the source and are kept apart here.

This assay concerns the target T1, PD brain-derived alpha-synuclein aggregates (Homo sapiens, UniProt P37840).
T1 construct: PD brain-derived alpha-synuclein aggregates were spotted onto microarray slides; from tissue; host or cells: human Parkinson's disease patient brain
As to the kind of experiment: Micro-radiobinding competition assay for the determination of binding affinity. Conditions: for inhibition at 0.1 µM: read-out: Competition at 100 nM (%); for inhibition at 1 µM: read-out: Competition at 1 μM (%); for Ki: concentration range 0.05 nM to 2 μM, nonlinear regression, one site specific binding model. As to the method:
Micro-Radiobinding Competition Assay for the Determination of Binding Affinity
PD brain-derived alpha-synuclein aggregates were spotted onto microarray slides. The slides were incubated with tritiated reference alpha-synuclein ligand at 20 nM or 30 nM and the example compounds (non-radiolabelled) at 1 μM and 100 nM. In some cases, the non-radiolabelled example compounds were further assessed for a range of different concentrations, varying from 0.05 nM to 2 μM. After incubation, slides were washed and scanned by a real-time autoradiography system (BeaQuant, ai4R). Quantification of the signal was performed by using the Beamage image analysis software (ai4R). Non-specific signal was determined with an excess of non-radiolabelled reference alpha-synuclein ligand (2 μM) and specific binding was calculated by subtracting the non-specific signal from the total signal. Competition was calculated as percent, where 0% was defined as the specific binding in the presence of vehicle and 100% as the values obtained in the presence of excess of the non-radiolabelled reference alpha-synuclein ligand. Ki values were calculated in GraphPad Prism7 by applying a nonlinear regression curve fit using a one site, specific binding model. All measurements were performed with at least two technical replicates.
Table 4: Assessment of binding affinity by micro-radiobinding competition assay on human PD brain-derived alpha-synuclein aggregates.

The mark [1] stands for this setting: non-radiolabelled example compound at 100 nM, competition with tritiated reference alpha-synuclein ligand (20 nM or 30 nM), 100% = excess non-radiolabelled reference ligand.
[2] abbreviates: non-radiolabelled example compound at 1 μM, competition with tritiated reference alpha-synuclein ligand (20 nM or 30 nM), 100% = excess non-radiolabelled reference ligand.

As for `O=C1c2cn(-c3cnc(N4CC[C@@H](F)C4)cn3)nc2CN1c1cccnc1` [Example 1, (R)-2-(5-(3-fluoropyrrolidin-1-yl)pyrazin-2-yl)-5-(pyridin-3-yl)-5,6-dihydropyrrolo[3,4-c]pyrazol-4(2H)-one], the inhibition at 0.1 µM under setting [1] was 89%. For the same compound, the inhibition at 1 µM under setting [2] is 95%.

For `O=C1c2cn(-c3cnc(N4CC[C@H](F)C4)cn3)nc2CN1c1cccnc1` [Example 2, (S)-2-(5-(3-fluoropyrrolidin-1-yl)pyrazin-2-yl)-5-(pyridin-3-yl)-5,6-dihydropyrrolo[3,4-c]pyrazol-4(2H)-one], the inhibition at 0.1 µM stood at 74% and the inhibition at 1 µM is 98%.

For the compound `O=C1c2cn(-c3cnc(N4CCCCC(F)C4)cn3)nc2CN1c1cccnc1` (centres unmarked) [Example 5, 2-(5-(3-fluoroazepan-1-yl)pyrazin-2-yl)-5-(pyridin-3-yl)-5,6-dihydropyrrolo[3,4-c]pyrazol-4(2H)-one], the inhibition at 0.1 µM under setting [1] was determined as 39%. Further, the inhibition at 1 µM under setting [2] was determined as 68%.

For `COc1cncc(N2Cc3nn(-c4cnc(N5CC[C@@H](F)C5)cn4)cc3C2=O)c1` [Example 7, (R)-2-(5-(3-fluoropyrrolidin-1-yl)pyrazin-2-yl)-5-(5-methoxypyridin-3-yl)-5,6-dihydropyrrolo[3,4-c]pyrazol-4(2H)-one], the inhibition at 0.1 µM was 48% and the inhibition at 1 µM was 69%.

For `Cn1cc(N2Cc3nn(-c4cnc(N5CCCCC(F)C5)cn4)cc3C2=O)cn1` (centres unmarked) [Example 8, 2-(5-(3-fluoroazepan-1-yl)pyrazin-2-yl)-5-(1-methyl-1H-pyrazol-4-yl)-5,6-dihydropyrrolo[3,4-c]pyrazol-4(2H)-one], the affinity, expressed as Ki, was 33 nM. The inhibition at 0.1 µM under setting [1] is 45%. The inhibition at 1 µM under setting [2] came to 78%.

`O=C1c2cn(-c3cnc(N4CC[C@@H](F)C4)cn3)nc2CN1c1cncs1` [Example 9, (R)-2-(5-(3-fluoropyrrolidin-1-yl)pyrazin-2-yl)-5-(thiazol-5-yl)-5,6-dihydropyrrolo[3,4-c]pyrazol-4(2H)-one]: the inhibition constant (Ki) turned out to be 10 nM and the inhibition at 0.1 µM came to 106%.

With `COc1cncc(N2Cc3nn(-c4cnc(N5CC[C@H](F)C5)cn4)cc3C2=O)c1` [Example 10, (S)-2-(5-(3-fluoropyrrolidin-1-yl)pyrazin-2-yl)-5-(5-methoxypyridin-3-yl)-5,6-dihydropyrrolo[3,4-c]pyrazol-4(2H)-one], the inhibition at 0.1 µM was determined as 59% and the inhibition at 1 µM turned out to be 82%.

As for `COc1cncc(N2Cc3nn(-c4cnc(N5CC(F)C5)cn4)cc3C2=O)c1` [Example 11, 2-(5-(3-fluoroazetidin-1-yl)pyrazin-2-yl)-5-(5-methoxypyridin-3-yl)-5,6-dihydropyrrolo[3,4-c]pyrazol-4(2H)-one], the inhibition at 0.1 µM stood at 41% and the inhibition at 1 µM stood at 69%.

Consider `O=C1c2cn(-c3cnc(N4CC[C@H](F)C4)cn3)nc2CN1c1cncs1` [Example 12, (S)-2-(5-(3-fluoropyrrolidin-1-yl)pyrazin-2-yl)-5-(thiazol-5-yl)-5,6-dihydropyrrolo[3,4-c]pyrazol-4(2H)-one], for which the inhibition at 0.1 µM amounted to 50%.

In the case of `O=C1c2cn(-c3cnc(N4CCCC(F)CC4)cn3)nc2CN1c1cccnc1` (centres unmarked) [Example 15, 2-(5-(4-fluoroazepan-1-yl)pyrazin-2-yl)-5-(pyridin-3-yl)-5,6-dihydropyrrolo[3,4-c]pyrazol-4(2H)-one], under setting [1], the inhibition at 0.1 µM was found to be 39%. Also, the inhibition at 1 µM under setting [2] worked out at 67%.

For `Cc1ccc(N2Cc3nn(-c4cnc(N5CC[C@@H](F)C5)cn4)cc3C2=O)cn1` [Example 17, (R)-2-(5-(3-fluoropyrrolidin-1-yl)pyrazin-2-yl)-5-(6-methylpyridin-3-yl)-5,6-dihydropyrrolo[3,4-c]pyrazol-4(2H)-one], the inhibition at 0.1 µM under setting [1] stood at 46%. Besides, the inhibition at 1 µM under setting [2] came to 91%.

Take `Cc1ccc(N2Cc3nn(-c4cnc(N5CC[C@H](F)C5)cn4)cc3C2=O)cn1` [Example 18, (S)-2-(5-(3-fluoropyrrolidin-1-yl)pyrazin-2-yl)-5-(6-methylpyridin-3-yl)-5,6-dihydropyrrolo[3,4-c]pyrazol-4(2H)-one]: the inhibition at 0.1 µM under setting [1] is 38%. Further, the inhibition at 1 µM under setting [2] was found to be 82%.

On to `Cc1ccc(N2Cc3nn(-c4cnc(N5CC(F)C5)cn4)cc3C2=O)cn1` [Example 19, 2-(5-(3-fluoroazetidin-1-yl)pyrazin-2-yl)-5-(6-methylpyridin-3-yl)-5,6-dihydropyrrolo[3,4-c]pyrazol-4(2H)-one], for which, under setting [1], the inhibition at 0.1 µM was determined as 44%. Under setting [2], the inhibition at 1 µM worked out at 74%.

`O=C1c2cn(-c3ccc(N4CC[C@@H](F)C4)nn3)nc2CN1c1cccnc1` [Example 20, (R)-2-(6-(3-fluoropyrrolidin-1-yl)pyridazin-3-yl)-5-(pyridin-3-yl)-5,6-dihydropyrrolo[3,4-c]pyrazol-4(2H)-one]: the Ki came out at 422 nM. The inhibition at 0.1 µM under setting [1] came to 38%. Further, the inhibition at 1 µM under setting [2] was found to be 74%.

As to `Cn1cc(N2Cc3nn(-c4ccc(N5CC[C@@H](F)C5)nn4)cc3C2=O)cn1` [Example 21, (R)-2-(6-(3-fluoropyrrolidin-1-yl)pyridazin-3-yl)-5-(1-methyl-1H-pyrazol-4-yl)-5,6-dihydropyrrolo[3,4-c]pyrazol-4(2H)-one], the inhibition at 0.1 µM under setting [1] was determined as 65%. Also, the inhibition at 1 µM under setting [2] was 86%.

For the compound `O=C1c2cn(-c3ccc(N4CC[C@@H](F)C4)nn3)nc2CN1c1cncs1` [Example 22, (R)-2-(6-(3-fluoropyrrolidin-1-yl)pyridazin-3-yl)-5-(thiazol-5-yl)-5,6-dihydropyrrolo[3,4-c]pyrazol-4(2H)-one], under setting [1], the inhibition at 0.1 µM worked out at 30%.

The compound `COc1cncc(N2Cc3nn(-c4ccc(N5CC[C@@H](F)C5)nn4)cc3C2=O)c1` [Example 23, (R)-2-(6-(3-fluoropyrrolidin-1-yl)pyridazin-3-yl)-5-(5-methoxypyridin-3-yl)-5,6-dihydropyrrolo[3,4-c]pyrazol-4(2H)-one] came in with a Ki of 182 nM. Further, the inhibition at 0.1 µM under setting [1] stood at 65%. Further, under setting [2], the inhibition at 1 µM was determined as 76%.

Compound `O=C1c2cn(-c3ccc(N4CC[C@H](F)C4)nn3)nc2CN1c1cccnc1` [Example 24, (S)-2-(6-(3-fluoropyrrolidin-1-yl)pyridazin-3-yl)-5-(pyridin-3-yl)-5,6-dihydropyrrolo[3,4-c]pyrazol-4(2H)-one] registered a Ki of 236 nM. Besides, the inhibition at 0.1 µM under setting [1] was determined as 30%. Besides, the inhibition at 1 µM under setting [2] was 77%.

In turn, `O=C1c2cn(-c3ccc(N4CC[C@H](F)C4)nn3)nc2CN1c1cncs1` [Example 25, (S)-2-(6-(3-fluoropyrrolidin-1-yl)pyridazin-3-yl)-5-(thiazol-5-yl)-5,6-dihydropyrrolo[3,4-c]pyrazol-4(2H)-one] showed a Ki of 222 nM. Moreover, under setting [1], the inhibition at 0.1 µM was 17%. Further, the inhibition at 1 µM under setting [2] was determined as 73%.

As to `Cn1cc(N2Cc3nn(-c4ccc(N5CC[C@H](F)C5)nn4)cc3C2=O)cn1` [Example 26, (S)-2-(6-(3-fluoropyrrolidin-1-yl)pyridazin-3-yl)-5-(1-methyl-1H-pyrazol-4-yl)-5,6-dihydropyrrolo[3,4-c]pyrazol-4(2H)-one], the inhibition at 0.1 µM under setting [1] came out at 8%. Further, the inhibition at 1 µM under setting [2] was determined as 76%.

On to `COc1cncc(N2Cc3nn(-c4ccc(N5CC[C@H](F)C5)nn4)cc3C2=O)c1` [Example 27, (S)-2-(6-(3-fluoropyrrolidin-1-yl)pyridazin-3-yl)-5-(5-methoxypyridin-3-yl)-5,6-dihydropyrrolo[3,4-c]pyrazol-4(2H)-one], for which the inhibition at 0.1 µM under setting [1] was 50%. Further, the inhibition at 1 µM under setting [2] amounted to 57%.

For the compound `O=C1c2cn(-c3ccc(N4CCCC(F)CC4)nn3)nc2CN1c1cccnc1` (centres unmarked) [Example 28, 2-(6-(4-fluoroazepan-1-yl)pyridazin-3-yl)-5-(pyridin-3-yl)-5,6-dihydropyrrolo[3,4-c]pyrazol-4(2H)-one], the inhibition at 0.1 µM under setting [1] stood at 17%. For the same compound, the inhibition at 1 µM under setting [2] was found to be 51%.

With `Cc1ccc(N2Cc3nn(-c4ccc(N5CC[C@@H](F)C5)nn4)cc3C2=O)cn1` [Example 29, (R)-2-(6-(3-fluoropyrrolidin-1-yl)pyridazin-3-yl)-5-(6-methylpyridin-3-yl)-5,6-dihydropyrrolo[3,4-c]pyrazol-4(2H)-one], the inhibition at 0.1 µM under setting [1] amounted to 15%. Besides, the inhibition at 1 µM under setting [2] amounted to 42%.

As for `Cc1ccc(N2Cc3nn(-c4ccc(N5CC[C@H](F)C5)nn4)cc3C2=O)cn1` [Example 30, (S)-2-(6-(3-fluoropyrrolidin-1-yl)pyridazin-3-yl)-5-(6-methylpyridin-3-yl)-5,6-dihydropyrrolo[3,4-c]pyrazol-4(2H)-one], the inhibition at 0.1 µM under setting [1] amounted to 4%. Besides, the inhibition at 1 µM under setting [2] is 39%.

For the compound `O=C1c2cn(-c3ccc(N4CC[C@@H](F)C4)nn3)nc2CN1c1ccns1` [Example 31, (R)-2-(6-(3-fluoropyrrolidin-1-yl)pyridazin-3-yl)-5-(isothiazol-5-yl)-5,6-dihydropyrrolo[3,4-c]pyrazol-4(2H)-one], the inhibition at 0.1 µM under setting [1] was found to be 71%. In addition, under setting [2], the inhibition at 1 µM was determined as 86%.

The Ki is the dissociation constant of the complex between target and ligand, obtained from inhibition or displacement.
